Reference: paper PMC6717000 (Biosensors & bioelectronics, 2019)

Tested on: Acid phosphatase from potato (AcP)
Assay: phenolCEST MRI of released phenol, initial velocity over […] min
Type: biochemical, Solanum tuberosum
Settings: pH 5.0, 37 °C, 10 mM acetate buffer, 10 mM Mg2+

Structure (SMILES): O=P(O)(O)Oc1ccccc1 [PP, phenyl phosphate]
- Km: 3.5 mM
